The source of these data is US20240319193A1, “CIRCULATING TUMOR CELL DIAGNOSTICS FOR BIOMARKERS PREDICTIVE OF RESISTANCE TO ANDROGEN RECEPTOR (AR) TARGETED THERAPIES” (Epic Sciences, Inc., priority 2014, published 2024).

The assay deals with progressive mCRPC patients. Description: Response to AR targeted therapy by baseline CTC AR expression (Epic CTC), Example 1. The format is in vivo, human. The settings on record: pooled AA+P or E patients; for patients with high AR who responded: high baseline AR expression on CTCs, N = 7; for patients with low AR who had a PSA decline and stable radiographic disease: low baseline AR expression on CTCs, N = 14, median follow-up 12 wks. The text has this: 48 samples from 21 unique progressive mCRPC patients treated with androgen receptor targeted (AR tx) therapies, 9 (43%) on Abiraterone plus Prednisone (AA+P) and 12 (57%) on Enzalutamide (E). Samples were collected and shipped to Epic Sciences, where cells were stained and CTC identified by fluorescent scanners and algorithmic analysis. CTCs, defined as classic (CK+CD45-w/intact DAPI nuclei and distinct), apopotic (CK+, CD45−, non-intact nuclei) and CK− (CK−, CD45-, intact and distinct) were identified. CTCs reported per mL of blood and were examined for AR, PTEN & ERG. CTC data were analyzed in context of PSA, Veridex CTC (reported per 7.5mL of blood), and clinical history.

Take Abiraterone plus Prednisone: the “patients with high AR who responded” value was 0%; the “patients with low AR who had a PSA decline and stable radiographic disease” value is on record as 53%.

Turning to `CNC(=O)c1ccc(N2C(=S)N(c3ccc(C#N)c(C(F)(F)F)c3)C(=O)C2(C)C)cc1F` [Enzalutamide], the “patients with high AR who responded” value worked out at 0%; the “patients with low AR who had a PSA decline and stable radiographic disease” value is recorded as 53%.
